This passage reports IC50 and pKi results from US8470803B2, “Boron-containing small molecules” (Anacor Pharmaceuticals, Inc., priority 2008, dated 2013).

Each structure is given as a SMILES string. Some results are limits rather than exact numbers.

For one experiment, the system named is IL-γ. The experiment in a line: Cytokine assay: IFNγ (IL-γ [sic]) release, PHA-induced PBMC. To be noted: human PBMC, 20 ug/mL PHA, 24 hours. The class given is cell-based. The method, then: (§1) Frozen human peripheral blood mononucleocytes (PBMC) were thawed and centrifuged. Cryopreservation media was aspirated off of the cell pellet, and the cells were resuspended in fresh culture media (CM) comprising RPMI 1640 and 10% FBS in 96 well plates. Test article was dissolved in DMSO to form a 10 mM sample (DMSO, 100%). The 10 mM samples were diluted to 100 μM in CM (DMSO, 1%), then further diluted to 10, 1, 0.1, 0.01 μM in 200 μL of CM (n=3). Inducer (1 μg/mL) LPS for TNF-α or 20 ug/mL PHA for IFNγ, IL-2, IL-4, IL-5 and IL-10. IL-23 was induced with 100 ng/ml IFN-g+[…], using THP-1 cells. Vehicle (1% DMSO) was used as a control for this experiment. Vehicle without inducer was used as a negative control. Cells were incubated at 37° C., 5% CO2. Supernatants were extracted at 24 hours (for TNF-α, IL-2 and IFNγ) and 48 hours (for IL-4, IL-5, IL-10 and IL-23), and stored at −20° C. Supernatants were thawed and assayed for cytokine expression using the fluorochrome-labeled cytokine-specific beads and a BD FACSArray™. IL-23 was assayed using a commercial ELISA kit (R&D Systems).

In a further experiment the test system is IL-23. The experiment in a line: Cytokine assay: IL-23 release, IFN-g + LPS induced THP-1 cells. The class given is cell-based. The conditions noted are these: Homo sapiens, 100 ng/ml IFN-g + 1 mg/ml LPS, 48 hours, ELISA. The method, then: as §1
(ELISA stands for enzyme-linked immunosorbent assay.)

The subject of experiment [1] is T1, PDE4 partially purified from human U-937 myeloid leukemia cells.
T1 construct: PDE4 partially purified from human U-937 myeloid leukemia cells was used
Nature of the experiment: PDE4 assay ([3H]cAMP hydrolysis). To be noted: PDE4 from U-937 cells, 1 mM cAMP, pH 7.5, 20 minutes at 25° C. The class given is biochemical. The method, then:
PDE4 partially purified from human U-937 myeloid leukemia cells was used. Test article and/or vehicle was incubated with 0.2 mg enzyme and 1 mM cAMP containing 0.01 mM [3H]cAMP in Tris buffer pH 7.5 for 20 minutes at 25° C. The reaction was terminated by boiling for 2 minutes and the resulting AMP is converted to adenosine by addition of 10 mg/ml snake venom nucleotidase and further incubation at 37° C. for 10 minutes. Unhydrolyzed cAMP is bound to AG1-X2 resin, and remaining [3H]Adenosine in the aqueous phase is quantitated by scintillation counting.

For the next experiment, the system named is IL-5. Nature of the experiment: Cytokine assay: IL-5 release, PHA-induced PBMC. The class given is cell-based. The conditions noted are these: human PBMC, 20 ug/mL PHA, 48 hours. The method, then:
as §1

In another experiment the test system is IL-2. The experiment in a line: Cytokine assay: IL-2 release, PHA-induced PBMC. The class given is cell-based. The conditions noted are these: human PBMC, 20 ug/mL PHA, 24 hours. The method, then:
as §1

For the next experiment, the system named is IL-4. Nature of the experiment: Cytokine assay: IL-4 release, PHA-induced PBMC. The class given is cell-based. The conditions noted are these: human PBMC, 20 ug/mL PHA, 48 hours. The method, then:
as §1

Another experiment deals with IL-10. Nature of the experiment: Cytokine assay: IL-10 release, PHA-induced PBMC. The conditions noted are these: human PBMC, 20 ug/mL PHA, 48 hours. The class given is cell-based. The method, then: as §1
The next experiment deals with TNF-α. Nature of the experiment: Cytokine assay: TNF-α release, LPS-induced PBMC. The class given is cell-based. The conditions noted are these: human PBMC, 1 μg/mL LPS, supernatant at 24 hours. The method, then:
as §1

Another experiment deals with K-ATP channel. The conditions noted are these: K-ATP channel (SUR) binding; cited from earlier work.

Usually IC50 stands for the concentration at which inhibition is half-maximal. Consider `COc1nc(Nc2ccc3c(c2)COB3O)ccc1C#N` [C5, 6-(1-hydroxy-1,3-dihydrobenzo[c][1,2]oxaborol-5-ylamino)-2-methoxynicotinonitrile], for which the IC50 is 300 nM in the experiment with IL-γ; 2740 nM in the experiment with IL-23; 340 nM in experiment [1]; 700 nM in the experiment with IL-5; 210 nM with IL-2; 23000 nM in the experiment on IL-4. Further, the IC50 is 3700 nM in the experiment on IL-10 and 260 nM in the experiment with TNF-α.
Take `CC(C)(C)OC(=O)N(c1ccc(C#N)cc1)c1ccc2c(c1)COB2O` [C1, 5-[N-tert-Butoxycarbonyl-(4-cyanophenylamino)]-1,3-dihydro-1-hydroxybenzoxaborole]: the IC50 in the experiment with IL-γ is 620 nM; in experiment [1], 2750 nM; in the experiment on IL-5, 2420 nM; in the experiment with IL-2, 960 nM; in the experiment with IL-4, greater than 10000 nM; in the experiment with IL-10, 5590 nM. Besides, in the experiment on TNF-α, the IC50 amounted to 1100 nM.
As to `COc1nc(N(C(=O)OC(C)(C)C)c2ccc3c(c2)COB3O)ccc1C#N` [C4, tert-Butyl 5-cyano-6-methoxypyridin-2-yl(1-hydroxy-1,3-dihydrobenzo[c][1,2]oxaborol-5-yl)carbamate], the concentration for half-maximal inhibition (IC50) in the experiment on IL-γ turned out to be 370 nM; in the experiment with IL-23, 5770 nM; in [1], 180 nM; in the experiment with IL-5, 400 nM; in the experiment on IL-2 it was 220 nM; with IL-4, 33000 nM. The IC50 in the experiment on IL-10 worked out at 6000 nM; with TNF-α, 360 nM.
For the compound `N#Cc1ccc(Nc2ccc3c(c2)COB3O)cc1` [C2, 5-(4-Cyanophenylamino)-1,3-dihydro-1-hydroxybenzoxaborole], the IC50 in the experiment with IL-γ was 1510 nM; in the experiment with IL-23 it was 7350 nM; in experiment [1] it was 414 nM; with IL-5 it was 6830 nM; in the experiment with IL-2, 130 nM; in the experiment with IL-4 it was greater than 10000 nM. In addition, the IC50 was greater than 10000 nM in the experiment on IL-10 and 1080 nM in the experiment on TNF-α.
Regarding `CN(c1ccc(C#N)cc1)c1ccc2c(c1)COB2O` [C3, 5-[N-(4-Cyanophenyl)-N-methylamino]-1,3-dihydro-1-hydroxybenzoxaborole], the IC50 with IL-γ is 2000 nM; in experiment [1] it was 387 nM; in the experiment with IL-5, 3500 nM; in the experiment with IL-2, 880 nM; in the experiment with IL-4, greater than 10000 nM; in the experiment on IL-10, 3100 nM. Further, in the experiment with TNF-α, 1300 nM corresponded to half-maximal inhibition (IC50).
In general, pKi refers to the negative decadic logarithm of the Ki, by convention in mol/L. On to `CC1=NS(=O)(=O)c2cc(Cl)ccc2N1` [diazoxide], for which, on K-ATP channel, the pKi is 3.8.
